Values after ≈ are worked out from the molar mass of the structure shown.
Legend:
[1] = target: T1, Hexokinase-4 (Homo sapiens) (UniProt P35557); test: Activation of recombinant human glucokinase assessed as decrease in enzyme Km for glucose by G6PDH/NADP coupled assay relative to control
T1 sequence (whole entry): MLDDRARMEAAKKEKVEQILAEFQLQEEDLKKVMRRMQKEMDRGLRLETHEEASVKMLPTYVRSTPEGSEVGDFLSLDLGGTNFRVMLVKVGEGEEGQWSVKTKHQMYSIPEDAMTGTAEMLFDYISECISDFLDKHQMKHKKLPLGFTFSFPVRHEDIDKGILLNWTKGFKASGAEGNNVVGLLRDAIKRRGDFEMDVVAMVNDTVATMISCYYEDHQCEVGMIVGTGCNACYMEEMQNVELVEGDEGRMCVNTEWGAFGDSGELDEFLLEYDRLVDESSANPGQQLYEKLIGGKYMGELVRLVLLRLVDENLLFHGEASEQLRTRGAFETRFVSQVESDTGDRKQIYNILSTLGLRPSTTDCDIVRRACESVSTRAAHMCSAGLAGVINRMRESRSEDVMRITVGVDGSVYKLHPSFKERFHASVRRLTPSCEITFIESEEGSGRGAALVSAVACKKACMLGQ

[2] = target: T2, Hexokinase-4 (Homo sapiens, UniProt P35557); test: Activation of recombinant human glucokinase by G6PDH/NADP coupled assay
T2 sequence (P35557 whole entry): T1 sequence (whole entry)

[3] = target: T3, Hexokinase-4 (Rattus norvegicus, UniProt P17712); test: Activation of glucokinase in rat INS-1 cells assessed as glucose-stimulated insulin secretion; assay type: cell-based, INS1
T3 sequence (P17712 whole entry): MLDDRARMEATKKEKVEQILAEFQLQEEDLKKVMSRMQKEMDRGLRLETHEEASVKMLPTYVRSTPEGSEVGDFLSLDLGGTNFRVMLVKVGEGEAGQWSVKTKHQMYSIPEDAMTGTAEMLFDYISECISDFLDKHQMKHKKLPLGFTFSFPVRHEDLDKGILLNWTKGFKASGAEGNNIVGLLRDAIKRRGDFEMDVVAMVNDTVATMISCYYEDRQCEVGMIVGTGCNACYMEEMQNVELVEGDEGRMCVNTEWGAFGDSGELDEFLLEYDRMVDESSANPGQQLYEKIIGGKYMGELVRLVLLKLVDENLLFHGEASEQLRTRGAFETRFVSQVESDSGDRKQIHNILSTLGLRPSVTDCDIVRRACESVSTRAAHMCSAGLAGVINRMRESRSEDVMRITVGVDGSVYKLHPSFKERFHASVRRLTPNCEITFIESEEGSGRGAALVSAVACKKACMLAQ

[4] = Lipophilicity, log D of the compound at pH 7.4; assay type: physicochemical; conditions: buffer
[5] = target: T1, Hexokinase-4 (Homo sapiens); test: Activation of recombinant human glucokinase assessed as increase in enzyme Vmax for glucose by G6PDH/NADP coupled assay relative to control
[6] = Apparent permeability across RRCK cells; assay type: ADME, cell-based, Canis lupus familiaris, MDCKII-LE; conditions: dog, MDCK
[7] = test system: Rattus norvegicus; test: Antidiabetic activity in Goto-Kakizaki rat diabetic model assessed as reduction in glucose excursion AUC at 100 mg/kg, po measured after 1 hr by oral glucose tolerance test relative to control; set-up: scale not given: the % may be the effect or the level left
[8] = Aqueous kinetic solubility of the compound at pH 6.5; assay type: physicochemical; conditions: read-out: Kinetic_solubility

SMILES	fold change (FC) [1]	EC50 [2] [nM]	EC50 [3] [nM]	logD [4]	fold change (FC) [5]	Papp [6] [×10⁻⁶ cm/s]	solubility kinetic [8] [µM]	Activity [7] [%]
O=C(O)c1ccc(NC(=O)[C@H](CC2CCCC2)n2cnc(S(=O)(=O)C3CC3)c2)nc1	0.05	137	26000	-0.2	1.68	0.6		
O=C(O)c1ccc(NC(=O)[C@H](CC2CCOCC2)n2cnc(S(=O)(=O)C3CC3)c2)nc1	0.11	1350		-1.85	1.21	0.9		
O=C(O)c1ccc(NC(=O)[C@H](CC2CCCCC2)n2cnc(S(=O)(=O)C3CCC3)c2)nc1	0.08	227		0.15	1.25	0.3	198 (≈ 91.2 µg/mL)	

More lines, main results first:

fold change (FC) [1]	EC50 [2] [nM]	EC50 [3] [nM]	logD [4]	fold change (FC) [5]	Papp [6] [×10⁻⁶ cm/s]	solubility kinetic [8] [µM]	SMILES	Activity [7] [%]
			0.68				O=C(O)c1ccc(NC(=O)[C@H](CC2CCCC2)n2cnc(C(F)(F)F)c2)nc1 [PF-04991532]	17.7
0.08	113		-0.25	1.5	0.5		O=C(O)c1ccc(NC(=O)[C@H](CC2CCCCC2)n2cnc(S(=O)(=O)C3CC3)c2)nc1	
